Measurements from ChEMBL document CHEMBL1141478, “Lysianadioic acid, a carboxypeptidase B inhibitor from Lysiana subfalcata” (Bioorg Med Chem Lett, 2008).

Target: T1, Carboxypeptidase B (Homo sapiens, UniProt P15086)
T1 sequence (P15086 whole entry): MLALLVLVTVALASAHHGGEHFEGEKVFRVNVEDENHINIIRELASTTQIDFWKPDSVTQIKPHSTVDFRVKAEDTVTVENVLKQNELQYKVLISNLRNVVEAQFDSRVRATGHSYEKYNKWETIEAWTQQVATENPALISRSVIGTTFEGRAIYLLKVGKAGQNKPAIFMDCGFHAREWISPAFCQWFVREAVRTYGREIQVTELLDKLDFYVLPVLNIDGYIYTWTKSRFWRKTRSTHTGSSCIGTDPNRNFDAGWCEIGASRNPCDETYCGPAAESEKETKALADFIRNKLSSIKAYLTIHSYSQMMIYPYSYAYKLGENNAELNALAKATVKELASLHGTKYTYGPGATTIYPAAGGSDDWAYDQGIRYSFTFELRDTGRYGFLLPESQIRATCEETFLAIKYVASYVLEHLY
Assay: Inhibition of carboxypeptidase B

SMILES: N=C(N)NCC/C=C(/CC(=O)O)C(=O)O [LYSIANADIOIC ACID]
- IC50: 360 nM
